Where two headings read alike, the source gives them in different places.
Columns and labels:
GP IIb/IIIa = target: T1, GP IIb/IIIa (Homo sapiens, UniProt P05106+P08514); assay: Inhibition of binding of fibrinogen to isolated and immobilized GP IIb/IIIa (FB); settings: biotin-labelled fibrinogen; GP IIb/IIIa isolated from human blood platelet membranes, bonded to microtitre plates; read-out: FB: IC50 (inhibition of the fibrinogen GPIIb/IIIa binding)
T1 construct: GP IIb/IIIa is isolated from membranes of human blood platelets by triton X-100 extraction; from tissue; host or cells: human blood platelets (membranes)
T1 sequence (P08514 32-887 limits assumed): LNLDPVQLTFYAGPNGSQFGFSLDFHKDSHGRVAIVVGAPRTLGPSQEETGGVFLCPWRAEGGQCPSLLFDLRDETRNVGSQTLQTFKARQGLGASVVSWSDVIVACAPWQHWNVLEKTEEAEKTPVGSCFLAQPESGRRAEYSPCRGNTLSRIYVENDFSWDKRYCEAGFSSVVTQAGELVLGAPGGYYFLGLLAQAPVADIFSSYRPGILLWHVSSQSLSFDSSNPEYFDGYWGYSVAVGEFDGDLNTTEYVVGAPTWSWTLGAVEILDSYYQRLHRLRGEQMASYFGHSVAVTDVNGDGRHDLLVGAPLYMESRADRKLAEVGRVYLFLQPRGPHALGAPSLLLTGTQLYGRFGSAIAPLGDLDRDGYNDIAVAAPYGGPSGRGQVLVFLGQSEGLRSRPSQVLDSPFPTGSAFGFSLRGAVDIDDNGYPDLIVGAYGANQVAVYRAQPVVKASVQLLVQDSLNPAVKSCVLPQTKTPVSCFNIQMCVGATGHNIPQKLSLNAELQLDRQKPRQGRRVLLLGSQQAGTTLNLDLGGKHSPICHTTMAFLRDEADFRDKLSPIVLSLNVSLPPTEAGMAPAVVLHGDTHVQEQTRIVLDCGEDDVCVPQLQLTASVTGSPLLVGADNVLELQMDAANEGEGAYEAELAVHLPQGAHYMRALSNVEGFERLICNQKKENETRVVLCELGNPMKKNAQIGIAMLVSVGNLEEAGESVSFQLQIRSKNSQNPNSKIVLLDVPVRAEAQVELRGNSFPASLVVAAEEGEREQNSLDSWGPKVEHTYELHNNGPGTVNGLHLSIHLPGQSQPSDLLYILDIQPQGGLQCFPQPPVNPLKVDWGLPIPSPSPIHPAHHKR
T1 sequence (P05106 27-788): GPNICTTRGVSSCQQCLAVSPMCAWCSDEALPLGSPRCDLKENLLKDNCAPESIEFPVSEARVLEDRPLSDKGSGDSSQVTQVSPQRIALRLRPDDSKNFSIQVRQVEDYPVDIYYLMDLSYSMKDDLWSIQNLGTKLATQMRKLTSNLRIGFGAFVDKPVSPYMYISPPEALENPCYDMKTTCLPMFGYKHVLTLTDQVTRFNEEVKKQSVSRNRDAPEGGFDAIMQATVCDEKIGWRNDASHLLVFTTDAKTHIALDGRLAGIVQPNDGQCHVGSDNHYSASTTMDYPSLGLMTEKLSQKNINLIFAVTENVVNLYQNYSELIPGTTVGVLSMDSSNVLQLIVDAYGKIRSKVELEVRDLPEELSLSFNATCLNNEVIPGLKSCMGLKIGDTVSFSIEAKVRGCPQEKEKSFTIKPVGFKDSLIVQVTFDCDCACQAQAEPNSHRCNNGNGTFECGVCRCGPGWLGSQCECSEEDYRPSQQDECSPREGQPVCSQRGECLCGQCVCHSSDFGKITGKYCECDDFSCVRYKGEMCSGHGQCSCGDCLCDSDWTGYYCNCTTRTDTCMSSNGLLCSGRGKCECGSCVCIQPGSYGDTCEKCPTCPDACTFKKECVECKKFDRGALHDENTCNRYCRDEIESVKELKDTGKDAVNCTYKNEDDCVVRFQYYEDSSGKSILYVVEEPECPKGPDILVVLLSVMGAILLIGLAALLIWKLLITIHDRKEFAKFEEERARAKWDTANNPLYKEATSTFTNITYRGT
Excerpt: a) Inhibition of binding of fibrinogen to isolated and immobilized GP IIb/IIIa: GP IIb/IIIa is isolated from membranes of human blood platelets by triton X-100 extraction and purified by chromatography on ion exchangers and by gel filtration. The receptor protein thus obtained is bonded to microtitre plates. The inhibition of the binding of biotin-labelled fibrinogen to the receptor in the presence of inhibitor is quantified.
The compounds of formula I effect an inhibition of the fibrinogen GP IIb/IIIa binding in a range of IC50 (concentration of compounds of formula I which reduce the binding of fibrinogen to the receptor by 50%) of between 0.5 and 20 nM.
(§1) The compounds of Examples 1 to 8 are tested to determine their IC50 values in the inhibition of the fibrinogen GPIIb/IIIa binding (FB) and inhibition of the ADP-induced platelet aggregation (PA) test procedures described above.

human blood platelets = assay: Inhibition of the ADP-induced aggregation of human blood platelets in the presence of fibrinogen (PA); format: cell-based; settings: washed human platelets, stimulated with ADP in the presence of fibrinogen, aggregometer
Procedure: b) Inhibition of the ADP-induced aggregation of human blood platelets in the presence of fibrinogen: Blood platelets are isolated from fresh whole-blood by centrifugation, and washed. The washed platelets are resuspended in the presence of PGI2 and apyrase and stimulated with ADP ([…]) in the presence of fibrinogen. The ability of the platelets to aggregate in the presence or absence of inhibitors is quantified using an aggregometer.
The inhibition of the ADP-induced platelet aggregation is brought about by compounds of formula I in a range of IC50 (concentration of compounds of formula I at which 50% of platelet aggregation is inhibited) of between 20 and 100 nM.
as §1

[1] = read-out: PA: IC50 (inhibition of the ADP-induced platelet aggregation)

IC50 (GP IIb/IIIa) [nM] | IC50 (human blood platelets; Platelet) [nM] | IC50 (human blood platelets; [1]) [nM] | SMILES
0.5 |  | 80 | COc1ccc(CCC(=O)N[C@@H]2CC(=O)O[C@H](CNC(=O)Cc3ccc(C(=N)N)cc3)C2)cc1 [Example 7, (3S,5S)-6-(4-amidinophenylacetylamino)-5-hydroxy-3-(4-methoxyphenylpropionylamino)-hexanoic acid-δ-lactone]
0.9 |  | 110 | CC(C)CC(=O)N[C@@H]1CC(=O)O[C@H](CNC(=O)Cc2ccc(C(=N)N)cc2)C1 [Example 8, (3S,5S)-6-(4-amidino-phenylacetylamino)-5-hydroxy-3-(3-methyl-butyrylamino)-hexanoic acid-δ-lactone]

The remaining lines, values behind:

SMILES | IC50 (GP IIb/IIIa) [nM] | IC50 (human blood platelets; Platelet) [nM] | IC50 (human blood platelets; [1]) [nM]
Cc1ccc(S(=O)(=O)N[C@@H](CCCNC(=O)Cc2ccc(C(=N)N)cc2)CC(=O)O)cc1 [Example 1, (S)-3-(N-tosylamino)-6-[N-(p-amidinophenylacetyl)amino]hexanoic acid] | 7.6 | 640 | 
CC(C)CC(=O)N[C@@H](CCCNC(=O)Cc1ccc(C(=N)N)cc1)CC(=O)O [Example 2, (S)-3-[N-(3-methylbutyryl)amino]-6-[N-(p-amidinophenylacetyl)amino]hexanoicacid] | 1.7 | 100 | 
COc1ccc(CCC(=O)N[C@@H](CCCNC(=O)Cc2ccc(C(=N)N)cc2)CC(=O)O)cc1 [Example 3, (S)-3-N-[3-(p-methoxyphenyl)propionyl]amino-6-[N-(p-amidinophenylacetyl)amino]hexanoic acid] | 1.1 |  | 31
N=C(N)c1ccc(CC(=O)NCCC[C@@H](CC(=O)O)NC(=O)CC23CC4CC(CC(C4)C2)C3)cc1 [Example 4, (S)-3-[N-(adamant-1-ylacetyl)amino]-6-[N-(p-amidinophenylacetyl)amino]hexanoic acid] | 2.2 | 67 | 
N=C(N)c1ccc(CC(=O)NCCC[C@@H](CC(=O)O)NC(=O)CCC23CC4CC(CC(C4)C2)C3)cc1 [Example 5, (S)-3-[N-(3-adamant-1-ylpropionyl)amino]-6-[N-(p-amidinophenylacetyl)amino]hexanoic acid] | 0.4 | 61 | 
CC(C)CC(=O)N[C@@H](CCCCNC(=O)c1ccc(C(=N)N)cc1)CC(=O)O [Example 6, (S)-3-(N-(3-methylbutyryl)amino]-7-[N-(p-amidinobenzoyl)amino]heptanoic acid] | 0.5 | 15 | 

Reference: patent publication US5561112A, “Pseudopeptide isosteres of gly-asp and their use as antithrombic agents” (Sandoz Ltd., priority 1992, dated 1996)
